The source of these data is DBAASP.

Structures are written as SMILES. Converted amounts (≈) assume the structure as drawn.

What all share (assay): ≥ marks a high value that may be exact or a test limit, other limits are often not marked, values filed in µg/mL are converted to µM
Experiment [1] has as its system Bacillus licheniformis X39.
In experiment [2] the test system is Escherichia coli ATCC 25922.
Experiment [3] has as its system Rhodococcus rhodochrous X15.
The subject of experiment [4] is Acinetobacter baumannii 97830.
For experiment [5], the system named is Acinetobacter baumannii 9931.
In experiment [6] the test system is Acinetobacter baumannii ATCC 19606.
The subject of experiment [7] is Bacillus subtilis ATCC 23857.
Experiment [8] has as its system Escherichia coli 780.
In experiment [9] the test system is Escherichia coli 804.
Experiment [10] concerns Klebsiella pneumoniae ATCC 700603.
In experiment [11] the test system is Pseudomonas aeruginosa 50.
In experiment [12] the test system is Pseudomonas aeruginosa 73.
Experiment [13] deals with Pseudomonas aeruginosa ATCC 27853.
Experiment [14] deals with Pseudomonas aeruginosa ATCC 9027.
Experiment [15] relates to Staphylococcus aureus 113.
In experiment [16] the test system is Staphylococcus aureus 75.
In experiment [17] the test system is Staphylococcus aureus ATCC 29213.
Experiment [18] has as its system Staphylococcus epidermidis ATCC 12228.
In experiment [19] the test system is Enterobacter cloacae 218R.
Experiment [20] relates to Enterococcus faecalis ATCC 29212.
For experiment [21], the system named is Enterococcus faecalis W61950.
Experiment [22] relates to Enterococcus faecalis f43559.
In experiment [23] the test system is Enterococcus faecium mic80.
Experiment [24] relates to Enterococcus faecium t62764.
Experiment [25] has as its system Escherichia coli ESBL 63103.
The test system of experiment [26] is Escherichia coli ESBL 64771.
Experiment [27] has as its system Klebsiella pneumoniae ESBL 61962.
Experiment [28] relates to Klebsiella pneumoniae ESBL 63575.
The test system of experiment [29] is Pseudomonas aeruginosa 198.
The subject of experiment [30] is Pseudomonas aeruginosa 213.
The test system of experiment [31] is Pseudomonas aeruginosa 9.
Experiment [32] deals with Pseudomonas aeruginosa H1027.
Experiment [33] relates to Pseudomonas aeruginosa H1030.
The subject of experiment [34] is Pseudomonas aeruginosa LES400.
Experiment [35] concerns Pseudomonas aeruginosa PAO1 H103.
Experiment [36] deals with Staphylococcus aureus ATCC 25923.
Experiment [37] concerns Staphylococcus aureus C623.
In experiment [38] the test system is Stenotrophomonas maltophilia ATCC 13637.

For orientation: MIC means the smallest concentration in the dilution series that meets the test's criterion for growth inhibition. A higher MIC goes with weaker potency. For `CC[C@H](C)[C@@H]1NC(=O)[C@H](CCCCN)NC(=O)[C@@H](NC(=O)[C@H](Cc2ccccc2)NC(=O)[C@H](CC(C)C)NC(=O)[C@@H](NC(=O)[C@@H]2CCCN2C(=O)[C@@H](NC(=O)[C@@H](NC(=O)[C@H](CC(N)=O)NC(=O)[C@H](C)NC(=O)[C@H](C)NC(=O)[C@@H](NC(=O)[C@H](CCCCN)NC(=O)[C@H](CC(C)C)NC(=O)[C@H](C)NC(=O)[C@@H](NC(=O)[C@H](CO)NC(=O)[C@H](CC(C)C)NC(=O)[C@@H](N)Cc2ccccc2)[C@@H](C)O)C(C)C)C(C)C)C(C)C)[C@@H](C)O)CSSC[C@@H](C(=O)O)NC(=O)[C@H](CCCCN)NC(=O)[C@H](CCCCN)NC(=O)[C@H]([C@@H](C)O)NC1=O` [FLSTALKVAANVVPTLFCKITKKC], the MIC in experiment [1] is no less than 75 µM; in [2], 150 µM (≈ 389 µg/mL); in experiment [3], 9 µM (≈ 23.3 µg/mL).
On to `CC[C@H](C)[C@H](N)C(=O)N[C@@H](Cc1c[nH]c2ccccc12)C(=O)N[C@@H](CCCN=C(N)N)C(=O)N[C@@H](Cc1c[nH]c2ccccc12)C(=O)N[C@@H](Cc1c[nH]c2ccccc12)C(=O)N[C@@H](Cc1c[nH]c2ccccc12)C(=O)N[C@@H](CCCN=C(N)N)C(=O)N[C@@H](Cc1c[nH]c2ccccc12)C(=O)N[C@H](C(N)=O)[C@@H](C)CC` [IWRWWWRWI], for which the MIC in [4] came out at 8 µM (≈ 11.9 µg/mL); in experiment [5] it was 8 µM (≈ 11.9 µg/mL); in experiment [6] it was 32 µM (≈ 47.6 µg/mL); in [7], 4 µM (≈ 5.95 µg/mL); in experiment [8], 16 µM (≈ 23.8 µg/mL); in experiment [9] it was 8 µM (≈ 11.9 µg/mL). Besides, the MIC in experiment [10] is 8 µM (≈ 11.9 µg/mL); in [11], 16 µM (≈ 23.8 µg/mL); in [12], no less than 32 µM; in [13], 32 µM (≈ 47.6 µg/mL); in experiment [14], 32 µM (≈ 47.6 µg/mL); in experiment [15] it was 4 µM (≈ 5.95 µg/mL). Further, the results for the MIC in [16], in [17] and in experiment [18] were 8 µM (≈ 11.9 µg/mL), 4 µM (≈ 5.95 µg/mL) and 4 µM (≈ 5.95 µg/mL), respectively.
Turning to `CC[C@H](C)[C@H](NC(=O)[C@H](Cc1c[nH]c2ccccc12)NC(=O)[C@H](Cc1c[nH]c2ccccc12)NC(=O)[C@H](CCCCN)NC(=O)[C@H](CC(C)C)NC(=O)[C@H](CCCN=C(N)N)NC(=O)[C@H](CCCCN)NC(=O)[C@@H](N)CCCN=C(N)N)C(=O)N[C@@H](Cc1ccc(O)cc1)C(=O)O` [RKRLKWWIY], the MIC in experiment [19] was 7.12 µM (≈ 9.6 µg/mL); in [20], 27.4 µM (≈ 37 µg/mL); in [21] it was no less than 110 µM; in [22] it was no less than 110 µM; in experiment [23], 7.12 µM (≈ 9.6 µg/mL); in experiment [24] it was 1.78 µM (≈ 2.4 µg/mL). For the same compound, the MIC in experiment [25] was 3.48 µM (≈ 4.7 µg/mL); in experiment [26] it was 3.48 µM (≈ 4.7 µg/mL); in experiment [27], no less than 110 µM; in [28], 27.4 µM (≈ 37 µg/mL); in experiment [29] it was 27.4 µM (≈ 37 µg/mL); in experiment [30], 27.4 µM (≈ 37 µg/mL). Besides, the MIC in experiment [31] was found to be 27.4 µM (≈ 37 µg/mL); in experiment [32], 3.48 µM (≈ 4.7 µg/mL); in [33], 27.4 µM (≈ 37 µg/mL); in [34], 27.4 µM (≈ 37 µg/mL); in [35], 13.3 µM (≈ 18 µg/mL); in experiment [36], 3.48 µM (≈ 4.7 µg/mL). The MIC came to 3.48 µM (≈ 4.7 µg/mL) in experiment [37] and 1.78 µM (≈ 2.4 µg/mL) in [38].
On to `CC(C)[C@H](N)C(=O)N[C@@H](CCCN=C(N)N)C(=O)N[C@@H](CCCN=C(N)N)C(=O)N[C@@H](Cc1c[nH]c2ccccc12)C(=O)N[C@@H](Cc1c[nH]c2ccccc12)C(=O)N[C@@H](Cc1c[nH]c2ccccc12)C(=O)N[C@@H](CCCN=C(N)N)C(=O)N[C@@H](CCCN=C(N)N)C(=O)N[C@H](C(N)=O)C(C)C` [VRRWWWRRV], for which the MIC in experiment [4] is no less than 64 µM; in experiment [5] it was no less than 32 µM; in experiment [6], 128 µM (≈ 179 µg/mL); in experiment [7], 4 µM (≈ 5.59 µg/mL); in experiment [8], no less than 64 µM; in [9] it was no less than 64 µM. Besides, the MIC in experiment [10] was 64 µM (≈ 89.5 µg/mL); in experiment [11], no less than 128 µM; in experiment [12], no less than 128 µM; in [13] it was 32 µM (≈ 44.8 µg/mL); in experiment [14], 32 µM (≈ 44.8 µg/mL); in experiment [15] it was 16 µM (≈ 22.4 µg/mL). Besides, the results for the MIC in [16], in experiment [17] and in experiment [18] were 8 µM (≈ 11.2 µg/mL), 8 µM (≈ 11.2 µg/mL) and 4 µM (≈ 5.59 µg/mL), respectively.
Regarding `CC(C)[C@H](N)C(=O)N[C@@H](Cc1c[nH]c2ccccc12)C(=O)N[C@@H](CCCN=C(N)N)C(=O)N[C@@H](Cc1c[nH]c2ccccc12)C(=O)N[C@@H](Cc1c[nH]c2ccccc12)C(=O)N[C@@H](Cc1c[nH]c2ccccc12)C(=O)N[C@@H](CCCN=C(N)N)C(=O)N[C@@H](Cc1c[nH]c2ccccc12)C(=O)N[C@H](C(N)=O)C(C)C` [VWRWWWRWV], the MIC in [4] was 4 µM (≈ 5.83 µg/mL); in [5] it was 8 µM (≈ 11.7 µg/mL); in experiment [6] it was 16 µM (≈ 23.3 µg/mL); in experiment [7], 4 µM (≈ 5.83 µg/mL); in [8] it was 4 µM (≈ 5.83 µg/mL); in experiment [9], 16 µM (≈ 23.3 µg/mL). For the same compound, the MIC in experiment [10] is 8 µM (≈ 11.7 µg/mL); in experiment [11], no less than 32 µM; in [12], no less than 32 µM; in experiment [13], 32 µM (≈ 46.7 µg/mL); in [14], 32 µM (≈ 46.7 µg/mL); in experiment [15], 4 µM (≈ 5.83 µg/mL). The MIC in experiment [16], in experiment [17] and in [18] was 4 µM (≈ 5.83 µg/mL) each time.
Take `NCCCC[C@H](NC(=O)[C@H](Cc1c[nH]c2ccccc12)NC(=O)[C@H](Cc1c[nH]c2ccccc12)NC(=O)[C@H](CCCCN)NC(=O)[C@H](CCCCN)NC(=O)[C@@H](N)Cc1c[nH]c2ccccc12)C(=O)N[C@@H](CCCN=C(N)N)C(=O)N[C@@H](CCCN=C(N)N)C(=O)N[C@@H](Cc1c[nH]c2ccccc12)C(=O)O` [WKKWWKRRW]: the MIC in experiment [19] was 11 µM (≈ 16 µg/mL); in experiment [20] it was 43.2 µM (≈ 63 µg/mL); in [21] it was no less than 87 µM; in experiment [22] it was no less than 87 µM; in [23], 5.62 µM (≈ 8.2 µg/mL); in experiment [24], 2.74 µM (≈ 4 µg/mL). Moreover, the MIC in experiment [25] is 11 µM (≈ 16 µg/mL); in [26] it was 1.37 µM (≈ 2 µg/mL); in experiment [27], no less than 87 µM; in experiment [28], 21.2 µM (≈ 31 µg/mL); in [29] it was 21.2 µM (≈ 31 µg/mL); in [30], no less than 43.2 µM. The MIC turned out to be 21.2 µM (≈ 31 µg/mL) in [31]; 2.74 µM (≈ 4 µg/mL) in experiment [32]; 21.2 µM (≈ 31 µg/mL) in [33]; 21.2 µM (≈ 31 µg/mL) in experiment [34]; 11 µM (≈ 16 µg/mL) in experiment [35]; 0.685 µM (≈ 1 µg/mL) in experiment [36]. Further, the MIC in experiment [37] was found to be 1.37 µM (≈ 2 µg/mL); in [38], 0.685 µM (≈ 1 µg/mL).
